Data from paper PMC10218498, “Exploring BenzylethoxyAryl Urea Scaffolds for Multitarget Immunomodulation Therapies” (International Journal of Molecular Sciences, 2023).

How the values were obtained:
[1] = system: HEK-293 (human embryonic kidney cells); assay: MTT cell proliferation assay, HEK-293; assay type: cell-based; details: HEK293, 48 h of treatment
Description: (§1) This assay allowed us to establish the corresponding IC50 values (expressed as the concentration, in μM, at which 50% of cell viability is achieved), shown in Table 1.
(§2) In 96-well plates, 5 × 10^3 (HT-29, MCF-7, A549, HMEC-1, Jurkat, and HEK-293) cells per well were incubated with serial dilutions of the tested compounds in a total volume of 100 μL of their respective growth media. The 3-(4,5-dimethylthiazol-2-yl)-2,5-diphenyltetrazolium bromide (MTT; Sigma Chemical Co.) dye reduction assay in 96-well microplates was used. After 2 days of incubation (37 °C, 5% CO2 in a humid atmosphere), 10 μL of MTT (5 mg/mL in phosphate-buffered saline, PBS) was added to each well, and the plate was incubated for a further 3 h (37 °C). After that, the supernatant was discarded and replaced by 100 µL of DMSO to dissolve formazan crystals. The absorbance was then read at 550 nm by spectrophotometry. For all concentrations of compound, cell viability was expressed as the percentage of the ratio between the mean absorbance of treated cells and the mean absorbance of untreated cells. Three independent experiments were performed, and the IC50 values (i.e., concentration half inhibiting cell proliferation) were graphically determined using GraphPad Prism 4 software.

CD80 = CD80 relative quantification by flow cytometry in co-cultured THP-1; assay type: cell-based, human; details: 20 μM, related to non-treated cells
Description: Reducing the expression of CD11b has become a promising target for immune modulation in anti-cancer therapies. For that reason, we decided to study the effect of our compounds on CD11b in THP-1 cells co-cultured with HT-29. We also determine the relative amount of CD80, a common surface marker for monocytes. This study was performed on the collected cell culture from each well and gating living THP-1 cell population.
To study the effect of the compounds on every biological target in co-cultured THP-1 immune cells with cancer cell line HT-29, the compounds were incubated for 24 h/48 h as described before.
To detect membrane CD11b and CD80, after the cell incubation, suspended THP-1 was collected from the cell culture of each sample well, fixed with 4% in PBS paraformaldehyde, and stained with FITC Mouse monoclonal Anti-Human CD80 (Sigma-Aldrich, S. Louis, MO, USA, SAB4700142) and Alexa Fluor® 647 Rabbit monoclonal Anti-CD11b (Merck, S. Louis, MO, USA, #MABF366).

PD-L1 = PD-L1 (Homo sapiens, UniProt Q9NZQ7); assay: PD-L1 relative quantification by flow cytometry in A-549; assay type: cell-based; design: endogenous in cells; host or cells: A-549; details: A-549, 20 µM, 24 h, relative to DMSO control = 100
Description: To assess the effect of the selected compounds on the biological targets PD-L1 and VEFGR-2, we performed the study on both cancer cell lines HT-29 and A-549 and by flow cytometry technique. […] For these assays, cells were incubated for 24 h in the presence of the corresponding compounds at 20 µM concentration.
To study the effect of the compounds on every biological target in cancer cell lines, the compounds were used at 20 µM dose.
For the assay, 10^5 cells per well were incubated for 24 h with the corresponding dose of the tested compound in a total volume of 500 μL of their growth media.
On the one hand, to detect total PD-L1 and VEGFR-2, after the cell treatments, they were collected and fixed with 4% in PBS paraformaldehyde. After fixation, a treatment with 0.5% in PBS TritonTM X-100 was performed, and finally, cells were stained with FITC Mouse monoclonal Anti-Human VEGFR-2 (ab184903) and Alexa Fluor® 647 Rabbit monoclonal Anti-PD-L1 (ab215251).
On the other hand, to detect membrane PD-L1 and VEGFR-2, the process was the same, avoiding the treatment with 0.5% in PBS TritonTM X-100 step.

[2] = system: human microvessel endothelial cells (HMEC-1); assay: MTT cell proliferation assay, HMEC-1; assay type: cell-based; details: 48 h of treatment
Description: as §1, §2

Fyn = assay: Immunoblotting of OT-1 CTL signaling proteins: FYN; assay type: cell-based, mice; details: OT-1, 20 μM, 24 h
From the text: We next studied the effect of our compounds on the signaling cascade downstream of the TCR. […] However, both the expression and phosphorylation of LCK were increased in response to all compounds. The effects on ZAP70 and LAT were more complex, with opposing effects on total protein expression versus phosphorylation. Thus, all compounds modulated signaling downstream of the TCR in a manner that is likely to impact T-cell activation and activity.
CD8+ cells were obtained from the inguinal, axillary, brachial, and mesenteric lymph nodes previously collected from OT-1 mice. Lymph node cells were isolated by mashing through a […] cell strainer. Cells were resuspended in IMDM cell media at a concentration of 0.3 million cells/mL. N4 ovalbumin peptide was added at a concentration of 10 nM, and cells were incubated for 48 h at 5% CO2, 37 °C. On day 2 from recollection, cells were pelleted at 1300 rpm for 5 min and washed with PBS to remove N4 peptide. The cell pellet was resuspended in fresh IMDM media in a new flask in a 0.3 million cells/mL and supplemented with IL-2 at 20 ng/mL. After incubation for a further 48 h (day 4), cells were re-seeded in fresh IMDM media at a concentration of 0.3 million cells/mL supplemented with IL-2 at 20 ng/mL. Cells were cultured for a further 48 h prior to use on day 6 in functional assays.
To study the effect of the compounds in the signaling pathway of CTLs, the compound was incubated for 24 h at 20 μM. After this time, cells were collected and washed twice in PBS and lysed in radioimmunoprecipitation assay (RIPA) lysis buffer (50 mM tris-HCl at pH 7.4, 150 mM sodium chloride, 5 mM EGTA, 0.1% SDS, 1% NP-40, and 1% deoxycholate) supplemented with a protease and phosphatase inhibitor cocktail (mini complete ULTRA Protease tablet and phosSTOP tablet from Roche, Basel, Switzerland). Lysates were clarified by high-speed centrifugation (17,000 rpm for 15 min at 4 °C). Protein concentration was measured using a Micro BCA Protein Assay (Thermo Scientific, Waltham, MA, USA), and 10 μg to 30 μg of total protein were supplemented with 2X SDS sample buffer [tris (pH 6.8), 20% glycerol, 5% SDS, b-mercaptoethanol, and bromophenol blue) and boiled at 95 °C for 5 min. […] Bound Ab was detected by incubation with anti-rabbit and anti-mouse horseradish peroxidase secondary Ab (Cell Signaling Technology) and visualized using the Bio-Rad ChemiDoc MP Imaging System.

[3] = membrane THP-1, 1:5 HT-29/THP-1, 24 h
[4] = membrane THP-1, 2:1 HT-29/THP-1, 48 h

PD-L1, sequence (Q9NZQ7 19-290): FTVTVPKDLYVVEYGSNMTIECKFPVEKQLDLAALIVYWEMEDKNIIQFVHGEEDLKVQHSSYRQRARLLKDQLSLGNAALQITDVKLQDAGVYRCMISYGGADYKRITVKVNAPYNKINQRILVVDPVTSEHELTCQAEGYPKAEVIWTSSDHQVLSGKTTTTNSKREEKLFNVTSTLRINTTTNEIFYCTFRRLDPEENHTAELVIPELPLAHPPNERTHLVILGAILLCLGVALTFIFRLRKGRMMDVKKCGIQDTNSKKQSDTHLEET

Row | Total PD-L1 (%) (PD-L1) | SMILES | IC50 [1] [µM] | % CD80 (CD80; [3]) [%] | % CD80 (CD80; [4]) [%] | IC50 [2] [µM] | FYN protein expression (Western blot quantification) (Fyn)
1 | 96 ± 29 | Cc1c(COc2ccc(CN3CCCCC3C(=O)O)cc2Br)cccc1-c1ccccc1 (stereo not drawn) [BMS-8, reference compound] | 60 ± 10 | 101 ± 6 | 101 ± 6 |  | 
2 | 107 ± 13 | COc1ccc(COc2cccc(NC(=O)Nc3ccc(F)cc3)c2)cc1 [Compound 2] | > 100 | 99 ± 5 | 105 ± 1 | > 100 | 101
3 | 80 ± 7 | COc1ccc(COc2cccc(NC(=O)Nc3ccc(Br)cc3)c2)cc1 [Compound 8] | > 100 | 95 ± 9 | 103 ± 2 | > 100 | 
4 | 135 ± 18 | COc1ccc(COc2cccc(NC(=O)Nc3ccc(OC)cc3)c2)cc1 [Compound 11] | > 100 | 102 ± 6 | 103 ± 2 | > 100 | 109

Row | SMILES | Total PD-L1 (%) (PD-L1) | IC50 [1] [µM] | % CD80 (CD80; [3]) [%] | % CD80 (CD80; [4]) [%] | IC50 [2] [µM] | FYN protein expression (Western blot quantification) (Fyn)
5 | COc1ccc(COc2cccc(NC(=O)Oc3ccccc3)c2)cc1 [Compound 14] | 141 ± 1 | > 100 | 99 ± 6 | 102 ± 1 | > 100 | 102
